# Tests used:
# [1] = target: peripheral benzodiazepine receptor (PBR) (Homo sapiens, UniProt P30536); experiment: Binding to the peripheral benzodiazepine receptor
# [2] = target: T1, bovine serum albumin (BSA) (Bos taurus, UniProt P02769); experiment: Binding to serum albumin in tissue culture media; type: in vitro ADME; conditions: tissue culture media containing 10% (v/v) FBS
# T1 construct: from tissue; host or cells: fetal bovine serum (10% v/v) in tissue culture media
# Protocol: (§1) Like most 1,4-benzodiazepines, Bz-423 binds strongly to bovine serum albumin (BSA), which reduces the effective concentration of drug free in solution. For example, in tissue culture media containing 10% (v/v) fetal bovine serum (FBS), ca. 99% of the drug is bound to BSA. Therefore, cell culture cytotoxicity assays are conducted in media with 2% FBS to reduce binding to BSA and increase the free [Bz-423]. Under these conditions, the dose response-curve is quite sharp such that there is a limited concentration range at which Bz-423 is only partly effective. Since some benzodiazepines are known to have anti-proliferative properties, the effect of Bz-423 at concentrations <ED50 were carefully analyzed and observed that in addition to inducing apoptosis, Bz-423 prevented cell growth after 3 d in culture. In these low serum conditions, the cytotoxic and anti-proliferative effects overlapped making it difficult to study each effect independently. […] While higher amounts of drug may also block proliferation, it caused apoptosis well before the effects on proliferation could be observed.
# [3] = system: Ramos clones transfected to overexpress Bcl-2; experiment: Antiproliferation, 72 h, media with 10% FBS; type: cell-based, human; conditions: Bcl-2 overexpressing Ramos, read-out: ED50 (μM) for antiproliferation
# Protocol: as §1
# (§2) To confirm the decrease in cell number relative to control cells after 3 d of treatment is due to decreased proliferation and not cell death balanced by proliferation, in addition to cell counting, cell divisions were studied. PKH-67 is a fluorescent probe that binds irreversibly to cell membranes and upon cell division is partitioned equally between the daughter cells, making it possible to quantify cell division by flow cytometry. Ramos cells stained with PKH67 and treated with Bz-423 had fewer cell divisions at sub-cytotoxic concentrations which confirmed that the decrease in cell number was due to anti-proliferative affects and not cell death. To determine if Bz-423 induced anti-proliferation was specific to Ramos cells, cell counting and cell cycle experiments were done in other B cell lines and cell lines derived from solid tumors.
# [4] = system: Ramos clones transfected to overexpress Bcl-xL; experiment: Antiproliferation, 72 h, media with 10% FBS; type: cell-based, human; conditions: Bcl-XL overexpressing Ramos, read-out: ED50 (μM) for antiproliferation
# Protocol: as §1, §2
# Ramos cells = experiment: Antiproliferation, 72 h, media with 10% FBS; type: cell-based, human; conditions: read-out: ED50 (μM) for antiproliferation
# Protocol: as §1, §2
# [5] = target: T2, mitochondrial F1F0-ATPase (Bos taurus, UniProt P13621); experiment: ATPase activity in sub-mitochondrial particles (SMPs); type: biochemical, bovine; conditions: bovine SMPs; read-out: ED50, inhibition of mitochondrial ATPase activity
# T2 construct: from tissue
# Source text: Oligomycin, a macrolide natural product that binds to the mitochondrial F1F0-ATPase, induces a state 3 to 4 transition and generates O2^− like Bz-423. Based on these similarities, it is possible that the F1F0-ATPase is also the molecular target for Bz-423. To test this hypothesis, the effect of Bz-423 on ATPase activity in sub-mitochondrial particles (SMPs) was examined.
# >40 derivatives of Bz-423 were developed to determine the elements on this novel agent required for biological activity. […] The potency of these analogues in cell based assays correlated with the ED50 values in ATPase inhibition experiments using SMPs.
# [6] = system: neuroblastoma cell line IMR-32; experiment: Antiproliferation, 72 h, media with 10% FBS; type: cell-based; conditions: IMR-32, 72 h, read-out: ED50 (μM) for antiproliferation
# Protocol: as §1, §2
# [7] = system: malignant B cell line CA46; experiment: Antiproliferation, 72 h, media with 10% FBS; type: cell-based; conditions: CA46, 72 h, read-out: ED50 (μM) for antiproliferation
# Protocol: as §1, §2
# [8] = system: malignant B cell line Raji; experiment: Antiproliferation, 72 h, media with 10% FBS; type: cell-based; conditions: read-out: ED50 (μM) for antiproliferation
# Protocol: as §1, §2
# [9] = system: ovarian cells with null p53 (SKOV3); experiment: Antiproliferation, 72 h, media with 10% FBS; type: cell-based; conditions: SKOV3, 72 h, read-out: ED50 (μM) for antiproliferation
# Protocol: as §1, §2
# [10] = system: neuroblastoma cell line Lan-1; experiment: Antiproliferation, 72 h, media with 10% FBS; type: cell-based; conditions: Lan-1, 72 h, read-out: ED50 (μM) for antiproliferation
# Protocol: as §1, §2
# [11] = system: ornithine decarboxylase (ODC); experiment: ODC activity in treated cells, conversion of 3H-ornithine to putrescine; type: cell-based; conditions: cells treated 4 h
# Protocol: In these experiments, the conversion of ornithine to putrescine was quantified using ^3H-ornithine. For comparisons, control cells were treated with vehicle control or difluoromethyl ornithine (DFMO), a potent inhibitor of ornithine decarboxylase (like Bz-423, DFMO is a potent anti-proliferative agent). […] The reduction in ODC activity was paralleled by a decrease in ODC protein levels measured under the same conditions.
# As described above, Bz-423 induced apoptosis was signaled by an ROS response that arose from MRC complex III as a result of the state 3 to 4 transition. It was next sought to determine if the ROS response, critical for apoptosis, also mediated these effects on ODC. If the ROS was required for the decrease in ODC activity, it would likewise be implicated as potentially part of the anti-proliferative response to Bz-423. To test this, Ramos cells were treated with Bz-423, DFMO, or vehicle control for 4 h. In parallel, a second group of cells was pre-incubated with MnTBAP to limit the ROS and then cultured with Bz-423, DFMO, and vehicle control.
# [12] = system: central benzodiazepine receptor; experiment: Binding to the central benzodiazepine receptor
# human OSCP = target: T3, human OSCP (Homo sapiens, UniProt P48047); experiment: Quenching of intrinsic OSCP fluorescence on titration (binding isotherm); conditions: human OSCP overexpressed in E. coli, fluorescence quenching
# T3 construct: made in house; host or cells: E. coli
# Source text: Oligomycin is a macrolide natural product that binds to the mitochondrial F1F0-ATPase, induces a state 3 to 4 transition, and as a result, generates ROS (e.g., O2^−). In preferred embodiments, the present invention binds the OSCP component of the mitochondrial F1F0-ATPase. In certain embodiments, screening assays of the present invention permit detection of binding partners of the OSCP. OSCP is an intrinsically fluorescent protein. In certain embodiments, titrating a solution of test compounds of the present invention into an E. Coli sample overexpressed with OSCP results in quenching of the intrinsic OSCP fluorescence. In other embodiments, fluorescent or radioactive test compounds can be used in direct binding assays. In other embodiments, competition binding experiments can be conducted. In this type of assay, test compounds are assessed for their ability to compete with Bz-423 for binding to the OSCP. In some embodiments, the compounds of the present invention cause a reduced increase in cellular ROS levels and reduced apoptosis in cells through regulation of the OSCP gene (e.g., altering expression of the OSCP gene). In further embodiments, the present invention functions by altering the molecular motions of the ATPase motor.
# To determine if Bz-423 indeed binds to the OSCP and the affinity of the interaction, human OSCP was overexpressed in E. coli. […]
# T3 sequence (P48047 24-213): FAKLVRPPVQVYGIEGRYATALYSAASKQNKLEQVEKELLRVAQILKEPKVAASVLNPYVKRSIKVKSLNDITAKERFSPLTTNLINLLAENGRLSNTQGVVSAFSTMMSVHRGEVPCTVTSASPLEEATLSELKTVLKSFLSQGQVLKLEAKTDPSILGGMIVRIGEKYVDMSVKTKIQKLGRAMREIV
# T1 sequence (P02769 25-607): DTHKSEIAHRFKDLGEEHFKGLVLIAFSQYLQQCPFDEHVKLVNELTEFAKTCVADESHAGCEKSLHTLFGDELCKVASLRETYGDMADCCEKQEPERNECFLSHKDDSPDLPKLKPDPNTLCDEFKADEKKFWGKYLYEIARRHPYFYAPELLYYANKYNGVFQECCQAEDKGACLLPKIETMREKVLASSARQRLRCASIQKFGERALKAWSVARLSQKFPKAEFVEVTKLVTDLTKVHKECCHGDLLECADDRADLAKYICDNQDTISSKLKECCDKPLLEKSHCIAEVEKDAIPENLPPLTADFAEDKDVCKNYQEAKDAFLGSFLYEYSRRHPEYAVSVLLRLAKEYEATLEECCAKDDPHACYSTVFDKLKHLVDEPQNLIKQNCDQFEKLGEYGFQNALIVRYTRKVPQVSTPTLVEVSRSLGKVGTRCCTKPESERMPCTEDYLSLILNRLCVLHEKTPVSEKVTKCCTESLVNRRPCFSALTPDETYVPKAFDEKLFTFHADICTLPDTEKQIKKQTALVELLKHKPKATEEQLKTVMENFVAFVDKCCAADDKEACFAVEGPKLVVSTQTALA
# Sequence of peripheral benzodiazepine receptor (PBR) (P30536 whole entry, species assumed): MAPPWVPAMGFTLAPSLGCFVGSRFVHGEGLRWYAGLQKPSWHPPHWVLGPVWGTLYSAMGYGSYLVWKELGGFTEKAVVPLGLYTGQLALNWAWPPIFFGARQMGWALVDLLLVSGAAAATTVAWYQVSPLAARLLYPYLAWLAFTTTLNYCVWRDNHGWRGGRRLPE
structure (smiles),measurement,setting,value
CN1C(=O)C(Cc2ccc3ccccc3c2)N=C(c2ccc(O)cc2)c2cc(Cl)ccc21 (centres unmarked) [Bz-423],Kd,[1],~1 µM
same,Drug bound to BSA,[2],ca. 99%
same,EC50,[3],11.9 µM
same,EC50,[4],13.7 µM
same,EC50,Ramos cells,10.7 µM
same,EC50,[5],~5 µM
same,EC50,[6],18 µM
same,EC50,[7],13.4 µM
same,EC50,[8],12.9 µM
same,EC50,[9],18.2 µM
same,EC50,[10],13.7 µM
same,Effect on ODC activity,[11],significantly reduced ODC activity
same,Binding to the central benzodiazepine receptor,[12],prevents binding
same,Kd,human OSCP,0.2 ± 0.04 µM
